pIC50: −log10 of the molar value.
Target: GCN2 (Homo sapiens (Human), UniProt Q9P2K8)
Assay: GCN2 Biochemical Assay (TR-FRET, GFP-eIF2S1 substrate phosphorylation)
Settings: read-out: IC50 (GCN2 Inhibitory Activity)
Procedure, shortened: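 In-house GCN2 (1.6 nM 2× stock) phosphorylates GFP-eIF2S1 (50 nM 2× stock) with ATP (0.2 mM 2× stock) and tRNA, pH 7.5, 70 min at room temperature; 10-point 3.16-fold compound series. TR-FRET detection with Tb-anti-phospho antibody, 2–3 h, Ex 340/Em 490/520 nm; artifact plate spiked with phospho-substrate.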

Chain of GCN2 (Q9P2K8 whole entry): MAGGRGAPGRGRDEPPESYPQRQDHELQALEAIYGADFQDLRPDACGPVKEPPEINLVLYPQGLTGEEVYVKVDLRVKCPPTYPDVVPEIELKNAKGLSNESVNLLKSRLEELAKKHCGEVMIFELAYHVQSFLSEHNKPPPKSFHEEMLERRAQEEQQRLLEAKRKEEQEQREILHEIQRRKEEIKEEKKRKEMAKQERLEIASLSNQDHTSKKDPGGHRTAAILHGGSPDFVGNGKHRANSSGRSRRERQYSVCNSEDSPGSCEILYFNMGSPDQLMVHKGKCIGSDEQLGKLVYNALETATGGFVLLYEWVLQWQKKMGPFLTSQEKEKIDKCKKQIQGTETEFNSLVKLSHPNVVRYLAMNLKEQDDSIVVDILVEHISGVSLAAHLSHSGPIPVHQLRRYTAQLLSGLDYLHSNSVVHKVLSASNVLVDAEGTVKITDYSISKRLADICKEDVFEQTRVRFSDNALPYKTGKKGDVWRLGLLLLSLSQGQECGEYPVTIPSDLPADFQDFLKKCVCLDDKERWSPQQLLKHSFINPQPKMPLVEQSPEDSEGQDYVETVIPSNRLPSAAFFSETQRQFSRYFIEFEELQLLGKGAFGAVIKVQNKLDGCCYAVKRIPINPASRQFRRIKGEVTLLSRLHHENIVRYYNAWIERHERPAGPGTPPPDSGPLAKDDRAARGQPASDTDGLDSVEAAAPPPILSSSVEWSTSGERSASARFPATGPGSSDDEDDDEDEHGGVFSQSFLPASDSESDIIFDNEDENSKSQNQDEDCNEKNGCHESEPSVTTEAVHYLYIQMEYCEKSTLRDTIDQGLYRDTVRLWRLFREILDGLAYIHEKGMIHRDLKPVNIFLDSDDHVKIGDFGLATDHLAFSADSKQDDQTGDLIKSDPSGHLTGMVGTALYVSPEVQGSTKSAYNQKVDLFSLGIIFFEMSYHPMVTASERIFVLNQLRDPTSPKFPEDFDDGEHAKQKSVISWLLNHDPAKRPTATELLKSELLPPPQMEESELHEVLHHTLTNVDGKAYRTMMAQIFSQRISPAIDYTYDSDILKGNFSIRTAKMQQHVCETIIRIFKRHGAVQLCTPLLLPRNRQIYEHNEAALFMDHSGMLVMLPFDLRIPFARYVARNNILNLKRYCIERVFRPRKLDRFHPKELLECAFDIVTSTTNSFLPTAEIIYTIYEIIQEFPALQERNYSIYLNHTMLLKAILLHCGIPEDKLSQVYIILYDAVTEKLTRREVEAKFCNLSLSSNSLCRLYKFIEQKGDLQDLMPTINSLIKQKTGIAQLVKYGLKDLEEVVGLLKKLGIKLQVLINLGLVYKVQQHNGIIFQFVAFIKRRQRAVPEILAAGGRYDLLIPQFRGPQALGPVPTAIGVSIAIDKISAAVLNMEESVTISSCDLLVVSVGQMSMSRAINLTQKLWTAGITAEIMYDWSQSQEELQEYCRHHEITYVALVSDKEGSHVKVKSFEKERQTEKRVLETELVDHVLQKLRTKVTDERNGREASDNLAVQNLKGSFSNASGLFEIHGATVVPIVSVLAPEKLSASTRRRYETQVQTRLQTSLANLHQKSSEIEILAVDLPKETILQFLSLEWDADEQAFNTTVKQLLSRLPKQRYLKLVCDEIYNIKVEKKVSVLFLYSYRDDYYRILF

Row | pIC50 | Compound
1 | > 8.00 | Cc1cnc(Nc2cc(C)n(C)n2)nc1-c1c[nH]c2c(NC(=O)CN3CC[C@H](Oc4ncnc(N)n4)C3)cccc12 [Example 134, (S)-2-(3-((4-amino-1,3,5-triazin-2-yl)oxy)pyrrolidin-1-yl)-N-(3-(2-((1,5-dimethyl-1H-pyrazol-3-yl)amino)-5-methylpyrimidin-4-yl)-1H-indol-7-yl)acetamide]
2 | > 8.00 | CNc1ncnc(O[C@H]2CCN(CC(=O)Nc3cccc4c(-c5nc(Nc6cc(C)n(C)n6)ncc5C)c[nH]c34)C2)n1 [Example 135, (S)-N-(3-(2-((1,5-dimethyl-1H-pyrazol-3-yl)amino)-5-methylpyrimidin-4-yl)-1H-indol-7-yl)-2-(3-((4-(methylamino)-1,3,5-triazin-2-yl)oxy)pyrrolidin-1-yl)acetamide]
3 | > 8.00 | Cc1cnc(Nc2cc(C)n(C)n2)nc1-c1c[nH]c2c(NC(=O)CN3CC[C@H](Oc4ncnc(N(C)C)n4)C3)cccc12 [Example 136, (S)-N-(3-(2-((1,5-dimethyl-1H-pyrazol-3-yl)amino)-5-methylpyrimidin-4-yl)-1H-indol-7-yl)-2-(3-((4-(dimethylamino)-1,3,5-triazin-2-yl)oxy)pyrrolidin-1-yl)acetamide]
4 | > 8.00 | Cc1cnc(Nc2cc(C)n(C)n2)nc1-c1c[nH]c2c(NC(=O)CN3CC[C@H](Oc4ncnc(NC5CC5)n4)C3)cccc12 [Example 137, (S)-2-(3-((4-(cyclopropylamino)-1,3,5-triazin-2-yl)oxy)pyrrolidin-1-yl)-N-(3-(2-((1,5-dimethyl-1H-pyrazol-3-yl)amino)-5-methylpyrimidin-4-yl)-1H-indol-7-yl)acetamide]
5 | > 8.00 | Cc1cnc(Nc2cc(C)n(C)n2)nc1-c1c[nH]c2c(NC(=O)CN3CC[C@H](Oc4nc(N)nc(N)n4)C3)cccc12 [Example 138, (S)-2-(3-((4,6-diamino-1,3,5-triazin-2-yl)oxy)pyrrolidin-1-yl)-N-(3-(2-((1,5-dimethyl-1H-pyrazol-3-yl)amino)-5-methylpyrimidin-4-yl)-1H-indol-7-yl)acetamide]
6 | > 8.00 | Cc1cnc(Nc2cc(C)n(C)n2)nc1-c1c[nH]c2c(NC(=O)CN3CC[C@H](Oc4cc(N)ncn4)C3)cccc12 [Example 140, (S)-2-(3-((6-aminopyrimidin-4-yl)oxy)pyrrolidin-1-yl)-N-(3-(2-((1,5-dimethyl-1H-pyrazol-3-yl)amino)-5-methylpyrimidin-4-yl)-1H-indol-7-yl)acetamide]
7 | > 8.00 | CNc1cc(O[C@H]2CCN(CC(=O)Nc3cccc4c(-c5nc(Nc6cc(C)n(C)n6)ncc5C)c[nH]c34)C2)ncn1 [Example 141, (S)-N-(3-(2-((1,5-dimethyl-1H-pyrazol-3-yl)amino)-5-methylpyrimidin-4-yl)-1H-indol-7-yl)-2-(3-((6-(methylamino)pyrimidin-4-yl)oxy)pyrrolidin-1-yl)acetamide]
8 | > 8.00 | Cc1cnc(Nc2cc(C)n(C)n2)nc1-c1c[nH]c2c(NC(=O)CN3CC[C@H](Oc4cc(N(C)C)ncn4)C3)cccc12 [Example 153, (S)-N-(3-(2-((1,5-dimethyl-1H-pyrazol-3-yl)amino)-5-methylpyrimidin-4-yl)-1H-indol-7-yl)-2-(3-((6-(dimethylamino)pyrimidin-4-yl)oxy)pyrrolidin-1-yl)acetamide]

Second part, the compound before the results:

Row | Compound | pIC50
9 | Cc1cnc(Nc2cc(C)n(C)n2)nc1-c1c[nH]c2c(NC(=O)CN3CC[C@H](Oc4nc(N)nc(N5CCCC5)n4)C3)cccc12 [Example 139, (S)-2-(3-((4-amino-6-(pyrrolidin-1-yl)-1,3,5-triazin-2-yl)oxy)pyrrolidin-1-yl)-N-(3-(2-((1,5-dimethyl-1H-pyrazol-3-yl)amino)-5-methylpyrimidin-4-yl)-1H-indol-7-yl)acetamide] | > 8.00
10 | CCNc1cc(O[C@H]2CCN(CC(=O)Nc3cccc4c(-c5nc(Nc6cc(C)n(C)n6)ncc5C)c[nH]c34)C2)ncn1 [Example 142, (S)-N-(3-(2-((1,5-dimethyl-1H-pyrazol-3-yl)amino)-5-methylpyrimidin-4-yl)-1H-indol-7-yl)-2-(3-((6-(ethylamino)pyrimidin-4-yl)oxy)pyrrolidin-1-yl)acetamide] | > 8.00
11 | CCCNc1cc(O[C@H]2CCN(CC(=O)Nc3cccc4c(-c5nc(Nc6cc(C)n(C)n6)ncc5C)c[nH]c34)C2)ncn1 [Example 143, (S)-N-(3-(2-((1,5-dimethyl-1H-pyrazol-3-yl)amino)-5-methylpyrimidin-4-yl)-1H-indol-7-yl)-2-(3-((6-(propylamino)pyrimidin-4-yl)oxy)pyrrolidin-1-yl)acetamide] | > 8.00
12 | CCCCNc1cc(O[C@H]2CCN(CC(=O)Nc3cccc4c(-c5nc(Nc6cc(C)n(C)n6)ncc5C)c[nH]c34)C2)ncn1 [Example 144, (S)-2-(3-((6-(butylamino)pyrimidin-4-yl)oxy)pyrrolidin-1-yl)-N-(3-(2-((1,5-dimethyl-1H-pyrazol-3-yl)amino)-5-methylpyrimidin-4-yl)-1H-indol-7-yl)acetamide] | > 8.00
13 | Cc1cnc(Nc2cc(C)n(C)n2)nc1-c1c[nH]c2c(NC(=O)CN3CC[C@H](Oc4cc(NCCO)ncn4)C3)cccc12 [Example 145, (S)-N-(3-(2-((1,5-dimethyl-1H-pyrazol-3-yl)amino)-5-methylpyrimidin-4-yl)-1H-indol-7-yl)-2-(3-((6-((2-hydroxyethyl)amino)pyrimidin-4-yl)oxy)pyrrolidin-1-yl)acetamide] | > 8.00
14 | Cc1cnc(Nc2cc(C)n(C)n2)nc1-c1c[nH]c2c(NC(=O)CN3CC[C@H](Oc4cc(NCCCO)ncn4)C3)cccc12 [Example 146, (S)-N-(3-(2-((1,5-dimethyl-1H-pyrazol-3-yl)amino)-5-methylpyrimidin-4-yl)-1H-indol-7-yl)-2-(3-((6-((3-hydroxypropyl)amino)pyrimidin-4-yl)oxy)pyrrolidin-1-yl)acetamide] | > 8.00
15 | COCCNc1cc(O[C@H]2CCN(CC(=O)Nc3cccc4c(-c5nc(Nc6cc(C)n(C)n6)ncc5C)c[nH]c34)C2)ncn1 [Example 147, (S)-N-(3-(2-((1,5-dimethyl-1H-pyrazol-3-yl)amino)-5-methylpyrimidin-4-yl)-1H-indol-7-yl)-2-(3-((6-((2-methoxyethyl)amino)pyrimidin-4-yl)oxy)pyrrolidin-1-yl)acetamide] | > 8.00
16 | Cc1cnc(Nc2cc(C)n(C)n2)nc1-c1c[nH]c2c(NC(=O)CN3CC[C@H](Oc4cc(NCCCN(C)C)ncn4)C3)cccc12 [Example 148, (S)-N-(3-(2-((1,5-dimethyl-1H-pyrazol-3-yl)amino)-5-methylpyrimidin-4-yl)-1H-indol-7-yl)-2-(3-((6-((3-(dimethylamino)propyl)amino)pyrimidin-4-yl)oxy)pyrrolidin-1-yl)acetamide] | > 8.00
17 | Cc1cnc(Nc2cc(C)n(C)n2)nc1-c1c[nH]c2c(NC(=O)CN3CC[C@H](Oc4cc(NCc5ccccc5)ncn4)C3)cccc12 [Example 149, (S)-2-(3-((6-(benzylamino)pyrimidin-4-yl)oxy)pyrrolidin-1-yl)-N-(3-(2-((1,5-dimethyl-1H-pyrazol-3-yl)amino)-5-methylpyrimidin-4-yl)-1H-indol-7-yl)acetamide] | > 8.00
18 | Cc1cnc(Nc2cc(C)n(C)n2)nc1-c1c[nH]c2c(NC(=O)CN3CC[C@H](Oc4cc(NCCc5ccccc5)ncn4)C3)cccc12 [Example 150, (S)-N-(3-(2-((1,5-dimethyl-1H-pyrazol-3-yl)amino)-5-methylpyrimidin-4-yl)-1H-indol-7-yl)-2-(3-((6-(phenethylamino)pyrimidin-4-yl)oxy)pyrrolidin-1-yl)acetamide] | 7.00 to 8.00
19 | Cc1cnc(Nc2cc(C)n(C)n2)nc1-c1c[nH]c2c(NC(=O)CN3CC[C@H](Oc4cc(NC5CC5)ncn4)C3)cccc12 [Example 151, (S)-2-(3-((6-(cyclopropylamino)pyrimidin-4-yl)oxy)pyrrolidin-1-yl)-N-(3-(2-((1,5-dimethyl-1H-pyrazol-3-yl)amino)-5-methylpyrimidin-4-yl)-1H-indol-7-yl)acetamide] | > 8.00
20 | Cc1cnc(Nc2cc(C)n(C)n2)nc1-c1c[nH]c2c(NC(=O)CN3CC[C@H](Oc4cc(NC5CCCCC5)ncn4)C3)cccc12 [Example 152, (S)-2-(3-((6-(cyclohexylamino)pyrimidin-4-yl)oxy)pyrrolidin-1-yl)-N-(3-(2-((1,5-dimethyl-1H-pyrazol-3-yl)amino)-5-methylpyrimidin-4-yl)-1H-indol-7-yl)acetamide] | 7.00 to 8.00
21 | CCN(C)c1cc(O[C@H]2CCN(CC(=O)Nc3cccc4c(-c5nc(Nc6cc(C)n(C)n6)ncc5C)c[nH]c34)C2)ncn1 [Example 154, (S)-N-(3-(2-((1,5-dimethyl-1H-pyrazol-3-yl)amino)-5-methylpyrimidin-4-yl)-1H-indol-7-yl)-2-(3-((6-(ethyl(methyl)amino)pyrimidin-4-yl)oxy)pyrrolidin-1-yl)acetamide] | > 8.00
22 | CCN(CC)c1cc(O[C@H]2CCN(CC(=O)Nc3cccc4c(-c5nc(Nc6cc(C)n(C)n6)ncc5C)c[nH]c34)C2)ncn1 [Example 155, (S)-2-(3-((6-(diethylamino)pyrimidin-4-yl)oxy)pyrrolidin-1-yl)-N-(3-(2-((1,5-dimethyl-1H-pyrazol-3-yl)amino)-5-methylpyrimidin-4-yl)-1H-indol-7-yl)acetamide] | 7.00 to 8.00
23 | CCCN(CC)c1cc(O[C@H]2CCN(CC(=O)Nc3cccc4c(-c5nc(Nc6cc(C)n(C)n6)ncc5C)c[nH]c34)C2)ncn1 [Example 156, (S)-N-(3-(2-((1,5-dimethyl-1H-pyrazol-3-yl)amino)-5-methylpyrimidin-4-yl)-1H-indol-7-yl)-2-(3-((6-(ethyl(propyl)amino)pyrimidin-4-yl)oxy)pyrrolidin-1-yl)acetamide] | 7.00 to 8.00
24 | CCCCN(CC)c1cc(O[C@H]2CCN(CC(=O)Nc3cccc4c(-c5nc(Nc6cc(C)n(C)n6)ncc5C)c[nH]c34)C2)ncn1 [Example 157, (S)-2-(3-((6-(butyl(ethyl)amino)pyrimidin-4-yl)oxy)pyrrolidin-1-yl)-N-(3-(2-((1,5-dimethyl-1H-pyrazol-3-yl)amino)-5-methylpyrimidin-4-yl)-1H-indol-7-yl)acetamide] | 7.00 to 8.00
